Data from patent US20230111310A1, “CARBOXYLIC ACID DERIVATIVE-SUBSTITUTED IMINO ARYL COMPOUND, PREPARATION METHOD THEREFOR, HERBICIDAL COMPOSITION AND USE THEREOF” (Qingdao Kingagroot Chemical Compound Co., Ltd., priority 2020, published 2023).

Columns and labels:
Assay in all cases: Weeding effect in post-emergence stage
Assay type in all cases: in vivo
Echinochloa crusgalli = details: for Weeding effect in post-emergence stage, Echinochloa crusgalli (level): fresh weight control rate level; for Weeding effect in post-emergence stage, Echinochloa crusgalli: level of fresh weight growth control rate
Procedure, shortened: (§1)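 Pot-grown greenhouse plants sprayed at 2–3 leaf stage, 2 weeks after sowing, with compound in acetone/Tween 80 plus methyl oleate emulsifiable concentrate (1.5 liter/ha) at 500–7.5 g/ha. Growth control rated 3 weeks after treatment; mean of three replicates.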

Alopecurus japonicus = details: for Weeding effect in post-emergence stage, Alopecurus japonicus (level): fresh weight control rate level; for Weeding effect in post-emergence stage, Alopecurus japonicus: level of fresh weight growth control rate
Procedure, shortened: as §1

Setaria viridis = details: for Weeding effect in post-emergence stage, Setaria viridis (level): fresh weight control rate level; for Weeding effect in post-emergence stage, Setaria viridis: level of fresh weight growth control rate
Procedure, shortened: as §1

Eleusine indica = details: for Weeding effect in post-emergence stage, Eleusine indica (level): fresh weight control rate level; for Weeding effect in post-emergence stage, Eleusine indica: level of fresh weight growth control rate
Procedure, shortened: as §1

Abutilon theophrasti = details: for Weeding effect in post-emergence stage, Abutilon theophrasti (level): fresh weight control rate level; for Weeding effect in post-emergence stage, Abutilon theophrasti: level of fresh weight growth control rate
Procedure, shortened: as §1

Digitaria sanguinalis = details: for Weeding effect in post-emergence stage, Digitaria sanguinalis (level): fresh weight control rate level; for Weeding effect in post-emergence stage, Digitaria sanguinalis: level of fresh weight growth control rate
Procedure, shortened: as §1

## CCCSC(=O)[C@@H](C)O/N=C/c1cc(-n2c(=O)cc(C(F)(F)F)n(C)c2=O)c(F)cc1Cl [399(R)]
Echinochloa crusgalli; Dose 15 g/ha
  Weeding effect in post-emergence stage, Echinochloa crusgalli (level): 5 (Level 5: growth control rate is above 85%)
Alopecurus japonicus; Dose 15 g/ha
  Weeding effect in post-emergence stage, Alopecurus japonicus (level): 5 (Level 5: growth control rate is above 85%)
Setaria viridis; Dose 15 g/ha
  Weeding effect in post-emergence stage, Setaria viridis (level): 5 (Level 5: growth control rate is above 85%)
Eleusine indica; Dose 15 g/ha
  Weeding effect in post-emergence stage, Eleusine indica (level): 5 (Level 5: growth control rate is above 85%)
Abutilon theophrasti; Dose 15 g/ha
  Weeding effect in post-emergence stage, Abutilon theophrasti (level): 5 (Level 5: growth control rate is above 85%)
Digitaria sanguinalis; Dose 15 g/ha
  Weeding effect in post-emergence stage, Digitaria sanguinalis (level): 5 (Level 5: growth control rate is above 85%)

## C/C(=N\OC(=O)C(C)O/N=C/c1cc(-n2c(=O)cc(C(F)(F)F)n(C)c2=O)c(F)cc1Cl)C(C)C (stereo not drawn) [Compound 250]
Echinochloa crusgalli; Dose 15 g/ha
  Weeding effect in post-emergence stage, Echinochloa crusgalli: 5 (Level 5: growth control rate is above 85%)
Alopecurus japonicus; Dose 15 g/ha
  Weeding effect in post-emergence stage, Alopecurus japonicus: 5 (Level 5: growth control rate is above 85%)
Setaria viridis; Dose 15 g/ha
  Weeding effect in post-emergence stage, Setaria viridis: 5 (Level 5: growth control rate is above 85%)
Eleusine indica; Dose 15 g/ha
  Weeding effect in post-emergence stage, Eleusine indica: 5 (Level 5: growth control rate is above 85%)
Abutilon theophrasti; Dose 15 g/ha
  Weeding effect in post-emergence stage, Abutilon theophrasti: 5 (Level 5: growth control rate is above 85%)
Digitaria sanguinalis; Dose 15 g/ha
  Weeding effect in post-emergence stage, Digitaria sanguinalis: 5 (Level 5: growth control rate is above 85%)

## COC(=O)[C@@H](C)O/N=C/c1cc(-n2c(=S)cc(C(F)(F)F)n(C)c2=S)c(F)cc1Br [391(R)]
Echinochloa crusgalli; Dose 60 g/ha
  Weeding effect in post-emergence stage, Echinochloa crusgalli (level): 5 (Level 5: growth control rate is above 85%)
Alopecurus japonicus; Dose 60 g/ha
  Weeding effect in post-emergence stage, Alopecurus japonicus (level): 5 (Level 5: growth control rate is above 85%)
Setaria viridis; Dose 60 g/ha
  Weeding effect in post-emergence stage, Setaria viridis (level): 5 (Level 5: growth control rate is above 85%)
Eleusine indica; Dose 60 g/ha
  Weeding effect in post-emergence stage, Eleusine indica (level): 5 (Level 5: growth control rate is above 85%)
Abutilon theophrasti; Dose 60 g/ha
  Weeding effect in post-emergence stage, Abutilon theophrasti (level): 5 (Level 5: growth control rate is above 85%)
Digitaria sanguinalis; Dose 60 g/ha
  Weeding effect in post-emergence stage, Digitaria sanguinalis (level): 5 (Level 5: growth control rate is above 85%)

## COC(=O)C(O/N=C/c1cc(-n2c(=O)cc(C(F)(F)F)n(C)c2=O)c(F)cc1Cl)C(C)C (stereo not drawn) [Compound 318]
Echinochloa crusgalli; Dose 15 g/ha
  Weeding effect in post-emergence stage, Echinochloa crusgalli: 5 (Level 5: growth control rate is above 85%)
Alopecurus japonicus; Dose 15 g/ha
  Weeding effect in post-emergence stage, Alopecurus japonicus: 5 (Level 5: growth control rate is above 85%)
Setaria viridis; Dose 15 g/ha
  Weeding effect in post-emergence stage, Setaria viridis: 5 (Level 5: growth control rate is above 85%)
Eleusine indica; Dose 15 g/ha
  Weeding effect in post-emergence stage, Eleusine indica: 5 (Level 5: growth control rate is above 85%)
Abutilon theophrasti; Dose 15 g/ha
  Weeding effect in post-emergence stage, Abutilon theophrasti: 5 (Level 5: growth control rate is above 85%)
Digitaria sanguinalis; Dose 15 g/ha
  Weeding effect in post-emergence stage, Digitaria sanguinalis: 5 (Level 5: growth control rate is above 85%)

## COC(=O)C(C)O/N=C/c1cc(-n2c(=O)cc(C(F)(F)F)n(C)c2=S)c(F)cc1C(F)(F)F (racemic) [Compound 395]
Echinochloa crusgalli; Dose 60 g/ha
  Weeding effect in post-emergence stage, Echinochloa crusgalli (level): 5 (Level 5: growth control rate is above 85%)
Alopecurus japonicus; Dose 60 g/ha
  Weeding effect in post-emergence stage, Alopecurus japonicus (level): 5 (Level 5: growth control rate is above 85%)
Setaria viridis; Dose 60 g/ha
  Weeding effect in post-emergence stage, Setaria viridis (level): 5 (Level 5: growth control rate is above 85%)
Eleusine indica; Dose 60 g/ha
  Weeding effect in post-emergence stage, Eleusine indica (level): 5 (Level 5: growth control rate is above 85%)
Abutilon theophrasti; Dose 60 g/ha
  Weeding effect in post-emergence stage, Abutilon theophrasti (level): 5 (Level 5: growth control rate is above 85%)
Digitaria sanguinalis; Dose 60 g/ha
  Weeding effect in post-emergence stage, Digitaria sanguinalis (level): 5 (Level 5: growth control rate is above 85%)

## C[C@@H](O/N=C/c1cc(-n2c(=O)cc(C(F)(F)F)n(C)c2=O)c(F)cc1Cl)C(=O)O/N=C/c1ccccc1 [255(R)]
Echinochloa crusgalli; Dose 30 g/ha
  Weeding effect in post-emergence stage, Echinochloa crusgalli: 5 (Level 5: growth control rate is above 85%)
Alopecurus japonicus; Dose 30 g/ha
  Weeding effect in post-emergence stage, Alopecurus japonicus: 5 (Level 5: growth control rate is above 85%)
Setaria viridis; Dose 30 g/ha
  Weeding effect in post-emergence stage, Setaria viridis: 5 (Level 5: growth control rate is above 85%)
Eleusine indica; Dose 30 g/ha
  Weeding effect in post-emergence stage, Eleusine indica: 5 (Level 5: growth control rate is above 85%)
Abutilon theophrasti; Dose 30 g/ha
  Weeding effect in post-emergence stage, Abutilon theophrasti: 5 (Level 5: growth control rate is above 85%)
Digitaria sanguinalis; Dose 30 g/ha
  Weeding effect in post-emergence stage, Digitaria sanguinalis: 5 (Level 5: growth control rate is above 85%)

## COC(=O)C(CF)O/N=C/c1cc(-n2c(=O)cc(C(F)(F)F)n(C)c2=O)c(F)cc1Cl (racemic) [Compound 463]
Echinochloa crusgalli; Dose 15 g/ha
  Weeding effect in post-emergence stage, Echinochloa crusgalli (level): 5 (Level 5: growth control rate is above 85%)
Alopecurus japonicus; Dose 15 g/ha
  Weeding effect in post-emergence stage, Alopecurus japonicus (level): 5 (Level 5: growth control rate is above 85%)
Setaria viridis; Dose 15 g/ha
  Weeding effect in post-emergence stage, Setaria viridis (level): 5 (Level 5: growth control rate is above 85%)
Eleusine indica; Dose 15 g/ha
  Weeding effect in post-emergence stage, Eleusine indica (level): 5 (Level 5: growth control rate is above 85%)
Abutilon theophrasti; Dose 15 g/ha
  Weeding effect in post-emergence stage, Abutilon theophrasti (level): 5 (Level 5: growth control rate is above 85%)
Digitaria sanguinalis; Dose 15 g/ha
  Weeding effect in post-emergence stage, Digitaria sanguinalis (level): 5 (Level 5: growth control rate is above 85%)
